In patent US10654889B2, “Peptide having anticancer activity, and pharmaceutical composition, health functional food composition and functional cosmetic composition for preventing and treating cancer comprising the same as active ingredient” (INDUSTRY-UNIVERSITY COOPERATION FOUNDATION HANYANG …, priority 2016, dated 2020):

Assays:
cancer cells = conditions: cell and mouse xenograft models; Grant et al. 2012; cited from earlier work
[1] = system: breast cancer cell line (MDA-MB-231); test: Cell growth inhibition and apoptosis induction, breast cancer cell line; assay type: cell-based; conditions: for growth inhibition and apoptosis-inducing effects: 0.05-10 μM, 0-96 hours; for growth inhibition and apoptosis-inducing effects (cell images, MTT assay, FIG. 6): compared to the untreated control, 48 hours images, 96 hours MTT
Description: (§1) An embryonic kidney cell line (293T), a breast cancer cell line (MDA-MB-231), and colon cancer cell lines (HCT116 and HT29) were inoculated in a 96-well plate at a density of 3,000 cells/well, and 50 μL of a culture fluid was added thereto. The resulting mixture was cultured for an hour under 37° C./5% CO2 conditions. Each of the peptides prepared in Example 3 was added at an increasing concentration of 0.05, 1, 2, 3 and 10 μM to the well plate inoculated with each of the cell lines, and the resulting mixture was cultured for 0, 24, 48, 72 and 96 hours under 37° C./5% CO2 conditions. When the culture was completed, the cells were observed and their morphological changes were imaged using an inverted phase contrast microscope.

[2] = system: embryonic kidney cell line (293T); test: Cell growth inhibition and apoptosis induction, embryonic kidney cell line; assay type: cell-based; conditions: for growth inhibition and apoptosis-inducing effects: 0.05-10 μM, 0-96 hours; for growth inhibition and apoptosis-inducing effects (cell images, MTT assay, FIG. 6): compared to the untreated control, 48 hours images, 96 hours MTT
Description: as §1

[3] = system: colon cancer cell line HCT116; test: Cell growth inhibition and apoptosis induction, colon cancer cell line HCT116; assay type: cell-based; conditions: for growth inhibition and apoptosis-inducing effects: 0.05-10 μM, 0-96 hours; for growth inhibition and apoptosis-inducing effects (cell images, MTT assay, FIG. 6): compared to the untreated control, 48 hours images, 96 hours MTT
Description: as §1

[4] = system: colon cancer cell line HT29; test: Cell growth inhibition and apoptosis induction, colon cancer cell line HT29; assay type: cell-based; conditions: for growth inhibition and apoptosis-inducing effects: 0.05-10 μM, 0-96 hours; for growth inhibition and apoptosis-inducing effects (cell images, MTT assay, FIG. 6): compared to the untreated control, 48 hours images, 96 hours MTT
Description: as §1

[5] = system: liver cancer cell line (Hep3B); test: Cell growth inhibition and apoptosis, liver cancer cell line (MTT, CCK, Crystal Violet); assay type: cell-based; conditions: Hep3B treated once with peptide; compared to 5-2C-treated group
Description: The peptides were used to analyze effects on cell growth inhibition and apoptosis in the liver cancer cell line (Hep3B). FIGS. […] 8C and 8D graphically show the growth inhibition and apoptosis-inducing effects of the respective peptides at different concentrations. […] Therefore, it can be seen that the peptide of SEQ ID NO: 1 according to the present invention is a peptide having a sequence composed of an optimized number of amino acids to have anticancer activity.

leukemia cells = test: Growth inhibition and apoptosis in leukemia cells; assay type: cell-based; conditions: compared with Peptide 5-2C
breast cancer cells = test: Growth inhibition and apoptosis in breast cancer cells; assay type: cell-based; conditions: compared with Peptide 5-2C
colon cancer cells = test: Growth inhibition and apoptosis in colon cancer cells; assay type: cell-based; conditions: compared with Peptide 5-2C
liver cancer cells = test: Growth inhibition and apoptosis in liver cancer cells; assay type: cell-based; conditions: compared with Peptide 5-2C
kidney-derived cells = test: Growth inhibition and apoptosis in kidney-derived cells; assay type: cell-based; conditions: compared with Peptide 5-2C
various cells = test: IC50 in various cells (MTT, FIG. 16); assay type: cell-based; conditions: compared with Peptide 5-2C

Compound | growth inhibition and apoptosis-inducing effects [1] | growth inhibition and apoptosis-inducing effects (cell images, MTT assay, FIG. 6) [1] | growth inhibition and apoptosis-inducing effects [2] | growth inhibition and apoptosis-inducing effects (cell images, MTT assay, FIG. 6) [2] | growth inhibition and apoptosis-inducing effects [3] | growth inhibition and apoptosis-inducing effects (cell images, MTT assay, FIG. 6) [3] | growth inhibition and apoptosis-inducing effects [4] | growth inhibition and apoptosis-inducing effects (cell images, MTT assay, FIG. 6) [4] | other results
CCOc1ccccc1C1CC(=O)Nc2cc3c(cc21)OCO3 (centres unmarked) [FQI1, Factor Quinolinone Inhibitor 1] |  |  |  |  |  |  |  |  | inhibition of cancer cells versus normal cells (cancer cells): successful in inhibiting only the cancer cells without exerting any influence on normal cells
Ac-NYPQRcrgdkgpdc-amide [Peptide 5-2-51C] | exhibited growth inhibition and apoptosis-inducing effects | superior growth inhibition and apoptosis-inducing effects | exhibited growth inhibition and apoptosis-inducing effects | superior growth inhibition and apoptosis-inducing effects | exhibited growth inhibition and apoptosis-inducing effects | superior growth inhibition and apoptosis-inducing effects | exhibited growth inhibition and apoptosis-inducing effects | superior growth inhibition and apoptosis-inducing effects | 
Ac-PQRcrgdkgpdc-amide [Peptide 5-2-32C] | no growth inhibition and apoptosis-inducing effects at all |  |  |  |  |  |  |  | 
Ac-YPQRPcrgdkgpdc-amide [Peptide 5-2-52C] | exhibited growth inhibition and apoptosis-inducing effects | superior growth inhibition and apoptosis-inducing effects | exhibited growth inhibition and apoptosis-inducing effects | superior growth inhibition and apoptosis-inducing effects | exhibited growth inhibition and apoptosis-inducing effects | superior growth inhibition and apoptosis-inducing effects | exhibited growth inhibition and apoptosis-inducing effects | superior growth inhibition and apoptosis-inducing effects | 
Ac-YPQRcrgdkgpdc-amide [Peptide 5-2-4C] | exhibited growth inhibition and apoptosis-inducing effects | superior growth inhibition and apoptosis-inducing effects | exhibited growth inhibition and apoptosis-inducing effects | superior growth inhibition and apoptosis-inducing effects | exhibited growth inhibition and apoptosis-inducing effects | superior growth inhibition and apoptosis-inducing effects | exhibited growth inhibition and apoptosis-inducing effects | superior growth inhibition and apoptosis-inducing effects | change in IC50 values observed for 3 days [5]: steadily decreasing over 3 days, a level of which was highly similar to that of Peptide 5-2C; growth inhibition and apoptosis (leukemia cells): a tendency very similar to Peptide 5-2C; growth inhibition and apoptosis (breast cancer cells): a tendency very similar to Peptide 5-2C; growth inhibition and apoptosis (colon cancer cells): a tendency very similar to Peptide 5-2C; growth inhibition and apoptosis (liver cancer cells): a tendency very similar to Peptide 5-2C; growth inhibition and apoptosis (kidney-derived cells): a tendency very similar to Peptide 5-2C; IC50 value at 48 hours (various cells): very similar to that of Peptide 5-2C
Ac-YPQcrgdkgpdc-amide [Peptide 5-2-31C] | no growth inhibition and apoptosis-inducing effects at all |  |  |  |  |  |  |  | 
CRGDKGPDC [iRGD, reference compound] | no growth inhibition and apoptosis-inducing effects at all |  |  |  |  |  |  |  | 
